Series [1] in a line: MTT cytotoxicity assay on MH-22A tumor cells, 72 h. Format: cell-based, mouse. The conditions noted are these: mouse, MH-22A hepatocarcinoma cells. The method, then:
(§1) Tumor cell lines HT-1080 (human connective tissue fibrosarcoma) and MH-22A (mouse hepatocarcinoma) were used. All of the cells were obtained from the American Type Culture Collection ((ATCC,) Rockville, MD, USA). HT-1080 and MH-22A cells (4 × 10^4 cell/mL) were seeded in 96-well plates in Dulbecco’s modified Eagle’s medium (DMEM) containing 10% fetal bovine serum and cultivated for 72 h at 37 °C, 5% CO2 by exposure to different compounds concentrations (100 μg/mL, 25 μg/mL, 6.25 μg/mL, and 1.56 μg/mL). Cell viability was measured using 3-(4,5-dimethylthiazol-2-yl)-2,5-diphenyl-tetrazolium bromide (MTT) assay. In brief, after incubating with compounds, the culture medium was removed and fresh medium with 0.2 mg/mL MTT was added in each well of the plate. After incubation (3 h, 37 °C, 5% CO2), the medium with MTT was removed, and 200 μL of DMSO was added at once to each sample. The samples were tested at 540 nm on a Tecan multiplate reader Infinite1000 (Tecan Austria GmbH, Salzburg, Austria). The IC50 was calculated using the program Graph Pad Prism® 3.0.

Series [2] concerns MH-22A (mouse hepatocarcinoma) cells. As to the kind of experiment: MTT cytotoxicity assay on MH-22A tumor cells, 72 h. Format: cell-based. The settings on record: MTT, 72 h; ne = no effect in the tested concentration (up to 100 μg/mL). The method, then:
as §1

A short description of series [3]: Self-assembling properties by dynamic light scattering (DLS). Format: physicochemical. The settings on record: for PDI ± SD, 1 Set: freshly prepared samples; for PDI ± SD, 2 Set: two weeks after the first set, samples stored at r.t.; for Stability of nanoparticles: two weeks of storage at r.t., DLS; for Zeta-Pot ± SD: freshly prepared samples in water, 0.5 mg/mL (1–7), 0.25 mg/mL (8–10), 0.1 mg/mL (11). Here is the method:
Samples of compounds for dynamic light scattering (DLS) studies were prepared by thin-film hydration method in an aqueous solution at a concentration of 0.5 mg/mL for compounds 1–7, 0.25 mg/mL for compounds 8–10, and 0.1 mg/mL for compound 11. A corresponding amount of compounds was weighted in a round-bottom flask and dissolved in chloroform; then, the organic solvent was removed in vacuo, and the residue was dried in high vacuo for 1 h. An appropriate amount of deionised water was added to each flask for the preparation of stock solutions with the above-mentioned concentrations. Samples were prepared by sonication using a bath-type sonicator (Cole Parmer Ultrasonic Cleaner 8891CPX (Vernon Hills, IL, USA)). Samples were sonicated for 60 min at 50 °C.
The DLS measurements of the nanoparticles in an aqueous solution were carried out on a Zetasizer Nano ZSP (Malvern Panalytical Ltd., Malvern, UK) instrument with Malvern Instruments Ltd. Software 7.12, using the following specifications—medium: water; refractive index: 1.33; viscosity: 0.8872 cP; temperature: 25 °C; dielectric constant: 78.5; nanoparticles: liposomes; refractive index of materials: 1.60; detection angle: 173°; wavelength: 633 nm. Data were analysed using the multimodal number distribution software that was included with the instrument. The measurements were performed in triplicate in order to check their reproducibility.

The subject of series [4] is neuroblastoma SH-SY5Y cell line. The arrangement: method as in doi:10.1016/j.crci.2013.07.003. The settings on record: read-out: Calcium antagonistic properties, IC50, SH-SY5Y; cited from earlier work.
The nature of series [5]: Determination of critical aggregation concentration (CAC) by DLS. Format: physicochemical. The settings on record: aqueous media. Here is the method:
The critical aggregation concentrations (CAC) of 4-(N-alkylpyridinium)-1,4-DHP derivatives were determined in aqueous media using a Zetasizer Nano S90 (Malvern Panalytical Ltd., Malvern, UK) instrument with Malvern Instruments Ltd. Software according to procedure described by Topel et al. and modified by our group. Briefly, as stock solutions of tested compounds were used, samples were prepared for self-assembling experiments. All of the subsequent samples were prepared starting from the concentrated stock solution, which was subjected to a serial two-fold dilution each time with water. The intensity values of scattered light (kcps) as a function of concentration of amphiphiles were analysed. The scattering intensities detected for amphiphile concentrations below CAC have an approximately constant value corresponding to water. The intensity starts to show a linear increase with concentration at the CAC, since the amount of nanoparticles increases in the solution. The intersection of the best-fit lines drawn through the data points is the preliminary CAC value of the compounds.

Series [6] relates to vascular smooth muscle A7R5 cell line. The arrangement: method as in doi:10.1016/j.crci.2013.07.003. The settings on record: read-out: Calcium antagonistic properties, IC50, A7R5; cited from earlier work.
The test system of series [7] is NIH 3T3 (Mouse Swiss Albino embryo fibroblast) cells. As to the kind of experiment: Basal cytotoxicity test (neutral red uptake) with estimation of LD50 from IC50. The conditions noted are these: category by estimated LD50 (mg/kg). Format: cell-based. Here is the method:
The neutral red uptake (NRU) assay was performed according to the standard protocol of Stokes modified by NICEATM-ECVAM validation study. The NRU cytotoxicity assay procedure was based on the ability of viable cells to incorporate and bind neutral red, which is a supravital dye.
NIH 3T3 (Mouse Swiss Albino embryo fibroblast) cells (9000 cells/well) were placed into 96-well plates for 24 h in DMEM medium containing 5% fetal bovine serum (FBS). Then, they were exposed to the test compound over a range of seven concentrations (1000 μg/mL, 316 μg/mL, 100 μg/mL, 31 μg/mL, 10 μg/mL, 3.0 μg/mL, and 1.0 μg/mL) for 24 h. Untreated cells were used as a control. After 24 h, the medium was removed from all plates. Then, 250 μL of neutral red (NR) solution was added (0.05 mg/mL NR in DMEM 24 h pre-incubated at 37 °C and then filtered before use through a 0.22-µm syringe filter). Plates were incubated for 3 h, and then, cells were washed three times with phosphate buffered saline (PBS). The dye within viable cells was released by extraction with a mixture of acetic acid, ethanol, and water (1:50:49). The absorbance of neutral red was measured using a spectrophotometer multiplate reader Infinite M1000 (Tecan Austria GmbH, Salzburg, Austria) at 540 nm. The optical density (OD) was calculated using the formula: OD (treated cells) × 100/OD (control cells). The IC50 values were calculated using the program Graph Pad Prism® 3.0.
Data from the in vitro tests were used for estimating the starting dose for acute oral systemic toxicity tests in rodent. The in vivo starting dose is an estimated LD50 value that is calculated by inserting the in vitro IC50 value into a regression formula: log LD50 (mM/kg) = 0.439 log IC50 (mM) + 0.621 [29]. The value is recalculated to mg/kg, and compounds are evaluated in accordance with four toxicity categories: category 1: LD50 ≤ 5 mg/kg (highly toxic); category 2: 5 < LD50 ≤ 50 mg/kg (moderately toxic); category 3: 50 < LD50 ≤ 300 mg/kg (slightly toxic); category 4: 300 < LD50 ≤ 2000 mg/kg (practically non-toxic). Using an alternative in vitro method enables comparing the possible toxicity of new compounds and selecting compounds for further study, which will vastly reduce the number of animal experiments.

Series [8] relates to HT-1080 (human connective tissue fibrosarcoma) cells. As to the kind of experiment: MTT cytotoxicity assay on HT-1080 tumor cells, 72 h. Format: cell-based. The conditions noted are these: MTT, 72 h; ne = no effect in the tested concentration (up to 100 μg/mL). Here is the method: as §1
Setting [9] is: MTT, 72 h, ne = no effect in the tested concentration (up to 100 μg/mL), read-out: Cytotoxicity IC50, MH-22A.

Several values for one entry are separate records, joined by “and”; a condition that tells them apart may be missing. Identical values can stand only once. Entries after “also recorded” stand apart in the source; their conditions may differ. Like-named read-outs stand apart in the source and are kept apart here.

Turning to `C#CCN1C(C)=C(C(=O)OCC)C(c2ccc[n+](CCCCCCCCCCCC)c2)C(C(=O)OCC)=C1C` [Compound 6], in series [1] (setting [9]), the IC50 at 72 h lay in the range of 1 to 4 µM. Moreover, the half-inhibitory concentration (IC50) in series [2] was 1 ± 0.2 µM. In series [3], the “PDI ± SD, 1 Set” value was 0.15 and 0.15 ± 0.02; the “PDI ± SD, 2 Set” value is 0.20 and 0.20 ± 0.01; the Stability of nanoparticles result is given as “stable after two weeks of storage; also recorded: confirmed the stability of nanoparticles”. In series [4], the IC50 was 5 to 14 µM. In addition, in series [5], the CAC stood at 43.3 µM. For the same compound, the IC50 in series [6] is 0.6 to 0.7 µM.
As to `CCCCCCCCCCCC[n+]1cccc(C2C(C(=O)OCC)=C(C)NC(C)=C2C(=O)OCC)c1` [Compound 3], the “Toxicity category from estimated LD50” value in series [7] is recorded as “non-toxic”. Besides, the 50% inhibitory concentration (IC50) at 72 h in series [1] (setting [9]) was 15 ± 1 µM. Moreover, in series [3], the “PDI ± SD, 1 Set” value is 0.14 and 0.14 ± 0.01; the “Zeta-Pot ± SD” value was “+57.73 ± 2.30 mV”; the “PDI ± SD, 2 Set” value is 0.17 and 0.17 ± 0.02; the Stability of nanoparticles entry is listed as “stable after two weeks of storage; also recorded: confirmed the stability of nanoparticles”. Also, the IC50 in series [4] was 5 to 14 µM. The same compound gave a CAC in series [5] of 9.3 µM. Moreover, the IC50 in series [6] is 0.6 to 0.7 µM.
In the case of `C#CCOC(=O)C1=C(C)NC(C)=C(C(=O)OCC#C)C1c1ccc[n+](CC)c1` [Compound 7], in series [1] (as printed in the supplementary toxicity table, read-out: Cytotoxicity, IC50, MH-22A (supplementary table, for comparison)), the IC50 at 72 h amounted to 1000 µM. For the same compound, the “Cytotoxicity IC50, MH-22A” value in series [2] is “did not demonstrate any cytotoxic effect and ne”. Further, the “Cytotoxicity IC50, HT-1080” value in series [8] was “did not demonstrate any cytotoxic effect and ne”. In series [3], the “PDI ± SD, 1 Set” value is 0.90 and 0.90 ± 0.03; the “Zeta-Pot ± SD” value was −0.78 ± 0.26 mV; the “PDI ± SD, 2 Set” value stood at 0.73 ± 0.09; the Stability of nanoparticles result is on record as “weak stability”.
Turning to `C#CCOC(=O)C1=C(C)NC(C)=C(C(=O)OCC#C)C1c1ccc[n+](CCCCCCCCCCCC)c1` [Compound 9], the IC50 at 72 h in series [1] (setting [9]) was in the range of 1 to 4 µM. Moreover, half-maximal inhibition in series [2] (IC50) was put at 1 ± 0.2 µM. Moreover, half-maximal inhibition in series [8] (IC50) was put at 2 ± 0.2 µM. Moreover, in series [3], the “PDI ± SD, 1 Set” value is 0.36 and 0.36 ± 0.08; the “Zeta-Pot ± SD” value is reported as “+32.00 ± 4.81 mV”; the “PDI ± SD, 2 Set” value is 0.57 and 0.57 ± 0.05; the Stability of nanoparticles result was “lost their homogeneity after two weeks of storage”. Further, the CAC in series [5] is on record as 9.3 µM.
